Measurements from article PMC11267380, “USP25 Elevates SHLD2‐Mediated DNA Double‐Strand Break Repair and Regulates Chemoresponse in Cancer” (Advanced Science, 2024).

Experiments:
[1] = system: SW620 cells; assay: CCK8 survival assay, SW620 cells overexpressing TRIM25; assay type: cell-based; details: SW620 ctrl, 5-Fu (0, 0.1, 0.5, 1, 3 µM), 72 h
Text: Figure 6 TRIM25 ubiquitinates and inactivates USP25. a) The mRNA expression levels of USP25 in human normal colon tissue samples (n = 41) and colorectal adenocarcinoma tissue samples (n = 286 COAD patients) from the Ualcan database. b) The mRNA expression level of USP25 in human colon cell lines and colon carcinoma cell lines through qPCR. c) The protein expression level of USP25 in human colon cell lines and colon carcinoma cell lines through western blot. d) Tissue microarray with representative IHC images showing USP25 protein expression in COAD tumors and adjacent tissues. […] Cell lysates were subjected to HA resin, and the immunoprecipitants were subsequently blotted using the indicated antibodies. f) The protein expression levels of USP25 were evaluated in HEK293T cells transfected with MYC‐TRIM25 or Flag‐HECTD3. g) The effect of cycloheximide (CHX) treatment on USP25 expression levels was analyzed in HEK293T cells transfected with TRIM25 for an indicated duration of time. h) In vivo ubiquitination assays were performed in control and TRIM25 knockdown cells, transfected with indicated plasmids, and treated with MG132 for 4 h before harvesting. […]
For long‐term proliferation, cells were seeded in triplicate in each well of 96‐well plates at a density of 1000 cells per well. […] The absorbance was measured at 450 nm using the SpectraMax M5 reader (Molecular Devices).

[2] = system: USP25 and MDC1 BRCT-domain / FHA-domain; assay: GST pull-down of USP25 with MDC1 deletions after 5-Fu; assay type: cell-based, human; details: 5-Fu (20 uM), HEK293T lysates
Procedure: Figure 4 Regulation of the DDR signaling by USP25. a) HEK293T cells were left untreated or treated with IR (10 Gy) or 5‐Fu (20 uM). USP25 was immunoprecipitated and immunoblotted with phospho‐SQ/TQ (p‐SQ/TQ). b) HEK293T cells were pretreated with Ku55933 (25 µM) for 2 h followed by treatment with IR(10 Gy). After 1 h, USP25 was immunoprecipitated, left untreated, or treated with phosphatase and immunoblotted with p‐SQ/TQ. c) HEK293T cells transfected with USP25^WT and indicated constructs were left treated with IR(10 Gy). USP25 was immunoprecipitated and immunoblotted with p‐SQ/TQ. d) USP25 knockdowm U2OS cells rescued with USP25WT or USP25T523A were treated with IR (2 Gy), and co‐localization USP25 with γH2AX was detected by immunofluorescence. n>80 in each group. e) HEK293T cells were left untreated or treated with 5‐Fu (20 uM). […] The interaction USP25 and MDC1 deletions was detected. g) HEK293T cells transfected with USP25^WT or USP25^T523A were treated with IR, and cell lysates were incubated with GST or GST‐MDC1‐BRCT in vitro. The interaction USP25 and MDC1‐BRCT was detected. h) Non‐phosphorylated or phosphorylated Thr523 peptide was conjugated to beads and incubated with purified GST‐MDC1‐BRCT domain in buffer. […]

SMILES: O=c1[nH]cc(F)c(=O)[nH]1 [5‐Fu, 5‐fluorouracil]
- sensitization by TRIM25 overexpression [1]: sensitize to 5‐Fu treatment in ctrl SW620 cells
- interaction of MDC1 domains with USP25 after treatment [2]: MDC1 BRCT‐domain but not FHA‐domain interacted with USP25
